How the values were obtained:
[1] = molecular target: T1, His-tagged recombinant human MER cytoplasmic domain (Homo sapiens, UniProt Q12866); experiment: MER Enzyme Assay (LanthaScreen Eu Kinase Binding); conditions: averaged IC50; MER 5 nM; 60-minute incubation at 22° C.; TR-FRET
T1 construct: His-tagged recombinant human MER cytoplasmic domain
T1 sequence (Q12866 527-999 limits assumed): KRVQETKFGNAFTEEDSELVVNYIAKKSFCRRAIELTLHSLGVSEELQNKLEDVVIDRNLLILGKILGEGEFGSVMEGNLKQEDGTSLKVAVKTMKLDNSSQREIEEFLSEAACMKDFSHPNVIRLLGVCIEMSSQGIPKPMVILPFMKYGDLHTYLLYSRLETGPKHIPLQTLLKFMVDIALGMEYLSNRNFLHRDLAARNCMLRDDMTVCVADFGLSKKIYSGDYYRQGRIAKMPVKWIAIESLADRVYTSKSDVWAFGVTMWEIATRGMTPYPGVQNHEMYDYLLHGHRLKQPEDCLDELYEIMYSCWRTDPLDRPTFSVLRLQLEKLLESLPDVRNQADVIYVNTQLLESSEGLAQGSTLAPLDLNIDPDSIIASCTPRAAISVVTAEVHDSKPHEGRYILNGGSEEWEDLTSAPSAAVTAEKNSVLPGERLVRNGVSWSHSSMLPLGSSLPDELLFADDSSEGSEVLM
In short: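 TR-FRET binding: 5 nM His-MER cytoplasmic domain with 20 nM Tracer 236, 2 nM biotin-anti-His and 2 nM Eu-streptavidin in pH 7.4 HEPES, 10 mM MgCl2, 2% DMSO, with threefold compound dilutions, 60 min at 22 °C. Percent of control was fit to a 4-parameter logistic, and IC50 was taken at 50 POC.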

[2] = molecular target: T2, His-tagged recombinant human AXL cytoplasmic domain (Homo sapiens, UniProt P30530); experiment: AXL Enzyme Assay (LanthaScreen Eu Kinase Binding); conditions: averaged IC50; 60-minute incubation at 22° C.; TR-FRET
T2 construct: His-tagged recombinant human AXL cytoplasmic domain
T2 sequence (P30530 473-894 limits assumed): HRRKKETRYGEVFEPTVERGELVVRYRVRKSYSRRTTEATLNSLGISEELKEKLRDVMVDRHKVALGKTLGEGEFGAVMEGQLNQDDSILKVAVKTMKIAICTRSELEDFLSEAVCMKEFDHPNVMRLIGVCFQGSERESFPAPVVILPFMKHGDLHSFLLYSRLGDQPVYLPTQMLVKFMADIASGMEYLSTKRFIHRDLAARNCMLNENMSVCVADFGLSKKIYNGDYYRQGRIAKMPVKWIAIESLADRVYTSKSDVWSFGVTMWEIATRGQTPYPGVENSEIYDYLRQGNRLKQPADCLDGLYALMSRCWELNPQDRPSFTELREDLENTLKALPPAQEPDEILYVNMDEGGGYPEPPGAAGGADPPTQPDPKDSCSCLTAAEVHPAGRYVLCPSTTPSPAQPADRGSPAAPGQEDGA
In short: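 TR-FRET binding-displacement format: 20 nM Alexa Fluor Tracer 236, 2 nM biotin-anti-His and 2 nM Eu-streptavidin in 25 mM HEPES pH 7.4, 10 mM MgCl2, 0.01% Triton X-100, 2% DMSO. After 60 min at 22 °C, ratiometric percent of control was fitted to a 4-parameter logistic curve, IC50 taken at 50 POC.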

[3] = molecular target: T3, human MET kinase D1228N (Homo sapiens, UniProt P08581, D1228N); experiment: c-Met Enzyme Assay, D1228N mutant; type: binding; conditions: averaged IC50; D1228N 2 nM; 60-minute incubation at 22° C.; read-out: D1228 N IC50
T3 construct: GST-tagged recombinant human MET kinase domain; purchased Signal Chem
T3 sequence (P08581 1078-1345 D1228N): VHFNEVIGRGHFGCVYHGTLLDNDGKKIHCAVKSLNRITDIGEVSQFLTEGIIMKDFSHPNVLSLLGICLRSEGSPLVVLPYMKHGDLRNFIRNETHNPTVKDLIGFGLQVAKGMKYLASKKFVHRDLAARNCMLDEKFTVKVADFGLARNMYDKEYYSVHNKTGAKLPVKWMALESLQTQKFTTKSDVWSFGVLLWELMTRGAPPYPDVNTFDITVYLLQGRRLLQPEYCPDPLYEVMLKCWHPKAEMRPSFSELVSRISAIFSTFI
Protocol: (§1) The affinity of compound binding to wild type and mutant human MET kinases was measured using Invitrogen's LanthaScreen™ Eu Kinase Binding technology. Briefly, GST-tagged recombinant human MET kinase domain from Signal Chem (see Table 8 below for concentration in assay) was incubated with 50 nM Alexa-Fluor® Tracer 236 (Invitrogen Cat No. PR9078A) and 2 nM Europium-anti-GST (Invitrogen Cat. No. A15116) along with test compound in a buffer consisting of 25 mM HEPES, pH 7.4, 10 mM MgCl2, 0.01% Triton X-100, 1mM DTT, and 2% DMSO. Compounds were typically prepared in a three-fold serial dilution in DMSO and added to the assay to give the appropriate final concentration. After a 60-minute incubation at 22° C., the reaction was measured using a PerkinElmer EnVision multimode plate reader via TR-FRET dual wavelength detection, and the percent of control (POC) calculated using a ratiometric emission factor. […] The POC values were fit to a 4 parameter logistic curve and the IC50 value is point where the curve crosses 50 POC.

[4] = molecular target: T4, human MET kinase D1228H (Homo sapiens, UniProt P08581, D1228H); experiment: c-Met Enzyme Assay, D1228H mutant; type: binding; conditions: averaged IC50; D1228H 2 nM; 60-minute incubation at 22° C.; read-out: D1228 H IC50
T4 construct: GST-tagged recombinant human MET kinase domain; purchased Signal Chem
T4 sequence (P08581 1078-1345 D1228H): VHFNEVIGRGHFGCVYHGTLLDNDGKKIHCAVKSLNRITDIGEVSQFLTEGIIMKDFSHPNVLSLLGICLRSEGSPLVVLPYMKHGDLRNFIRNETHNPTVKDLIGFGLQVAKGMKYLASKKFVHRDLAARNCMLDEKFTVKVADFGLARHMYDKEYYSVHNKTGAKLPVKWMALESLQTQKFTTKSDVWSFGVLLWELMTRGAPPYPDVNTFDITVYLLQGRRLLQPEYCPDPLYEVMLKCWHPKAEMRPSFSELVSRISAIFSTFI
Protocol: as §1

[5] = molecular target: T5, human MET kinase Y1230S (Homo sapiens, UniProt P08581, Y1230S); experiment: c-Met Enzyme Assay, Y1230S mutant; type: binding; conditions: averaged IC50; Y1230S 8 nM; 60-minute incubation at 22° C.; read-out: Y1230 S IC50
T5 construct: GST-tagged recombinant human MET kinase domain; purchased Signal Chem
T5 sequence (P08581 1078-1345 Y1230S): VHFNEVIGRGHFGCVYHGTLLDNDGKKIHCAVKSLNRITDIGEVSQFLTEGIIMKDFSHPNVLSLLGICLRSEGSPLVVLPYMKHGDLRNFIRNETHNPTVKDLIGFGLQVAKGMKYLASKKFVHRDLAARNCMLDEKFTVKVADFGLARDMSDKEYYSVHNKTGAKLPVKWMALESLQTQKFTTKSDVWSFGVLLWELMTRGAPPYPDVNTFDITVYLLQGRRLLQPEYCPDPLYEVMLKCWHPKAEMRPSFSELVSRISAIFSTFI
Protocol: as §1

[6] = molecular target: T6, human MET kinase Y1230H (Homo sapiens, UniProt P08581, Y1230H); experiment: c-Met Enzyme Assay, Y1230H mutant; type: binding; conditions: averaged IC50; Y1230H 5 nM; 60-minute incubation at 22° C.; read-out: Y1230 H IC50
T6 construct: GST-tagged recombinant human MET kinase domain; purchased Signal Chem
T6 sequence (P08581 1078-1345 Y1230H): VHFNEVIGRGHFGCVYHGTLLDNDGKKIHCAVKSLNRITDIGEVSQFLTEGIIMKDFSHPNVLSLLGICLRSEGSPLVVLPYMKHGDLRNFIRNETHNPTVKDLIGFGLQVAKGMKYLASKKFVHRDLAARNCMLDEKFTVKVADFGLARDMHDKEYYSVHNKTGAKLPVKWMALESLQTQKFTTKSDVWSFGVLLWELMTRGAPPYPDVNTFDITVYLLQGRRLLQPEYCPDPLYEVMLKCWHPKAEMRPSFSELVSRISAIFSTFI
Protocol: as §1

[7] = molecular target: T7, human MET kinase Y1230C (Homo sapiens, UniProt P08581, Y1230C); experiment: c-Met Enzyme Assay, Y1230C mutant; type: binding; conditions: averaged IC50; Y1230C 2 nM; 60-minute incubation at 22° C.; read-out: Y1230 C IC50
T7 construct: GST-tagged recombinant human MET kinase domain; purchased Signal Chem
T7 sequence (P08581 1078-1345 Y1230C): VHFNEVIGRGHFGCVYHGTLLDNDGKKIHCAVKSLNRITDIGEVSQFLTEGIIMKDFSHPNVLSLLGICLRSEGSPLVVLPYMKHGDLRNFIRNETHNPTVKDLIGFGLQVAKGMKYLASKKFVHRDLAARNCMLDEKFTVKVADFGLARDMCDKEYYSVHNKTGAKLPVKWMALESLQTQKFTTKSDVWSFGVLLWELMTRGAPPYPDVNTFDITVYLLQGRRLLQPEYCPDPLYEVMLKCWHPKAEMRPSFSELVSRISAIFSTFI
Protocol: as §1

| Structure (SMILES) | IC50 [1] [nM] | IC50 [2] [nM] | IC50 [3] [nM] | IC50 [4] [nM] | IC50 [5] [nM] | IC50 [6] [nM] | IC50 [7] [nM] |
| --- | --- | --- | --- | --- | --- | --- | --- |
| COc1cc2nccc(Oc3ccc(NC(=O)c4cn(C(C)C)cc(-c5ccc(F)cc5OC)c4=O)nc3)c2cc1OC [Example 32, N-(5-((6,7-dimethoxyquinolin-4yl)oxy)pyridin-2-yl)-5-(4-fluoro-2-methoxyphenyl)-1-isopropyl-4-oxo-1,4-dihydropyridine-3-carboxamide] | 3 | 2 | 17.4 | 10 | 7.1 | 12.1 | 6.7 |
| CCCC(CCC)n1cc(C(=O)Nc2ccc(Oc3ccnc4cc(OC)c(OC)cc34)cn2)c(=O)c(-c2ccc(F)cc2F)c1 [Example 17, 5-(2,4-difluorophenyl)-N-(5-((6,7-dimethoxyquinolin-4yl)oxy)pyridin-2-yl)-1-(heptan-4-yl)-4-oxo-1,4-dihydropyridine-3-carboxamide] | 52 | 28 | 25 | 13.3 | 11.4 | 26.9 | 15.5 |
| COc1cc2nccc(Oc3ccc(NC(=O)c4cn(CC(=O)N(C)C)cc(-c5ccc(F)c(F)c5)c4=O)nc3)c2cc1OC [Example 24, 5-(3,4-difluorophenyl)-N-(5-((6,7-dimethoxyquinolin-4-yl)oxy)pyridin-2-yl)-1-(2-(dimethylamino)-2-oxoethyl)-4-oxo-1,4-dihydropyridine-3-carboxamide] | 5 | 1 | 36.7 | 15.2 | 16.5 | 22.7 | 14.3 |
| COc1cc2nccc(Oc3ccc(NC(=O)c4cn(CCC(C)C)cc(-c5ccc(F)cc5)c4=O)nc3)c2cc1OC [Example 34, N-(5-((6,7-dimethoxyquinolin-4yl)oxy)pyridin-2-yl)-5-(4-fluorophenyl)-1-isopentyl-4-oxo-1,4-dihydropyridine-3-carboxamide] | 9 | 2 | 7.2 | 5.5 | 4.1 | 5.9 | 4.2 |
| COc1cc2nccc(Oc3ccc(NC(=O)c4cn(CC(=O)N5CCCC5)cc(-c5ccc(F)cc5F)c4=O)nc3)c2cc1OC [Example 14] | 12 | 2 | 30.6 | 35.4 | 16.3 | 22.3 | 5.5 |
| COc1cc2nccc(Oc3ccc(NC(=O)c4cn(C(C)C)c(C)c(-c5ccc(F)c(F)c5)c4=O)nc3)c2cc1OC [Example 28, 5-(3,4-difluorophenyl)-N-(5-((6,7-dimethoxyquinolin-4yl)oxy)pyridin-2-yl)-1-isopropyl-6-methyl-4-oxo-1,4-dihydropyridine-3-carboxamide] | 3 | 1 | 3.6 | 1.4 | 1.8 | 7.8 | 1.7 |
| COc1cc2nccc(Oc3cnc(NC(=O)c4cn(C(C)C)c(C)c(-c5ccc(F)cc5)c4=O)nc3)c2cc1OC [Example 55, N-(5-((6,7-dimethoxyquinolin-4-yl)oxy)pyrimidin-2-yl)-5-(4-fluorophenyl)-1-isopropyl-6-methyl-4-oxo-1,4-dihydropyridine-3-carboxamide] | 5 | 2 | 3.4 | 2.2 | 2.6 | 2.8 | 2.2 |
| COc1cc2nccc(Oc3ccc(NC(=O)c4cn(C(C)C)cc(-c5ccc(F)cc5F)c4=O)nc3)c2cc1OC [Example 4] | 2 | 1 | 6.5 | 3.2 | 2.2 | 4.9 | 2.8 |
| COc1cc2nccc(Oc3ccc(NC(=O)c4cn(CC(=O)N(C)C)cc(-c5ccc(Cl)cc5)c4=O)nc3)c2cc1OC [Example 25] | 5 | 2 | 37.8 | 22.3 | 8 | 21.2 | 10.4 |
| CC(C)n1cc(C(=O)Nc2ccc(Oc3ccnc4cc(OC(F)(F)F)ccc34)cn2)c(=O)c(-c2ccc(F)cc2)c1 [Example 50, 5-(4-fluorophenyl)-1-isopropyl-4-oxo-N-(5-((7-(trifluoromethoxy)quinolin-4-yl)oxy)pyridin-2-yl)-1,4-dihydropyridine-3-carboxamide] | 79 | 16 | 444 | 223 | 166 | 397 | 199 |

More lines, now with the values ahead:

| IC50 [1] [nM] | IC50 [2] [nM] | IC50 [3] [nM] | IC50 [4] [nM] | IC50 [5] [nM] | IC50 [6] [nM] | IC50 [7] [nM] | Structure (SMILES) |
| --- | --- | --- | --- | --- | --- | --- | --- |
| 3 | 1 | 29.3 | 16.6 | 9.8 | 18.2 | 9.5 | COc1cc2nccc(Oc3ccc(NC(=O)c4cn(C)cc(-c5ccc(F)cc5)c4=O)nc3)c2cc1OC [Example 2] |
| 3 | 2 | 6.4 | 2 | 2.1 | 5.4 | 2.9 | COCCn1cc(C(=O)Nc2ccc(Oc3ccnc4cc(OC)c(OC)cc34)cn2)c(=O)c(-c2ccc(F)cc2)c1 [Example 7, N-(5((6,7-dimethoxyquinolin-4-yl)oxy)pyridin-2-yl)-5-(4-fluorophenyl)-1-(2-methoxyethyl)-4-oxo-1,4-dihydropyridine-3-carboxamide] |
| 16 | 3 | 179 | 66.3 | 55.3 | 209 | 47 | CCn1cc(C(=O)Nc2ccc(Oc3ccnc4ccc(OC)cc34)cn2)c(=O)c(-c2ccc(F)cc2)c1 [Example 39, 1-ethyl-5-(4-fluorophenyl)-N-(5-((6-methoxyquinolin-4-yl)oxy)pyridin-2-yl)-4-oxo-1,4-dihydropyridine-3-carboxamide] |
| 3 | 2 | 15.8 | 10 | 9.1 | 13.1 | 6.2 | COc1cc2nccc(Oc3ccc(NC(=O)c4cn(CC(C)(C)O)cc(-c5ccc(F)cc5)c4=O)nc3)c2cc1OC [Example 9, N-(5-((6,7-dimethoxyquinolin-4-yl)oxy)pyridin-2-yl)-5-(4-fluorophenyl)-1-(2-hydroxy-2-methylpropyl)-4-oxo-1,4-dihydropyridine-3-carboxamide] |

From patent US20200216416A1, “QUINOLINE COMPOUNDS AS INHIBITORS OF TAM AND MET KINASES” (Array BioPharma Inc., priority 2019, published 2020)
